Measurements reported in patent US20030228279A1, “Compositions and methods for viral delivery” (Corixa Corporation, priority 2001, published 2003).
“Also recorded” adds a separate entry of the source. Read-outs that look alike come from different tables or passages of the source.

How the values were obtained:
[1] = cited from earlier work
sheep red blood cells = details: cited from earlier work
[2] = in vivo; cited from earlier work
red blood cells = details: cited from earlier work
Aqueous solubility = format: physicochemical; details: at physiologic pH
From the text: Aqueous solubility is a desirable characteristic of adjuvant-active saponins and aids in vaccine formulation and efficacy (Kensil, 1996). Unlike oil-based emulsions and mineral salt adjuvants which can denature antigens and prevent protective effects, saponins are non-denaturing adjuvants due to their high aqueous solubility. Their high water solubility also obviates extensive homogenation procedures required for emulsion-type adjuvants, permitting simple mixing of aqueous adjuvant and antigen solutions prior to immunization. […] Water-soluble O-glycosides of simple hydroxybenzaldehydes (e.g., helicin (31)) not only occur in nature but readily form stable Schiff-base derivatives as well (see, The Merck Index, 12th ed.; Merck & Co., Inc.: Whitehouse Station, N.J., 1996) The synthetically simpler succinate (VI) is also useful since succinic acid constitutes a simple 4-carbon isostere for the glucuronic acid moiety and has been used to impart triterpenes with aqueous solubility (see, Gottfried and Baxendale, U.S. Pat. No. 3,070,623, 1962).

Compound | critical micellar concentration in phosphate buffered saline [1] | critical micellar concentration in water [1] | concentrations causing hemolysis of sheep red blood cells (sheep red blood cells; sheep red blood cells) [µg/mL] | adjuvant activity [2] | concentrations causing hemolysis of sheep red blood cells (sheep red blood cells) [µg/mL] | hemolytic activity towards red blood cells (red blood cells) | concentrations causing no detectable hemolysis of sheep red blood cells (sheep red blood cells) [µg/mL] | aqueous solubility (Aqueous solubility)
QS-21 | ~0.02 % (w/v) | about 0.03 % (w/v) | ≥ 25 | potent adjuvants | – | – | – | –
QS-18 | 0.02 % (w/v) | 0.04 % (w/v) | – | potent adjuvants | ≥ 25 | – | – | –
QS-7 | ~0.07% | approximately 0.06% | – | potent adjuvants; also recorded: potent inducer of cell-mediated and humoral responses | – | non-hemolytic | ≤ 200 | –
C[C@@H]1CC[C@@]2(OC1)O[C@H]1[C@@H](O)[C@H]3[C@@H]4CC[C@H]5C[C@@H](O[C@@H]6O[C@H](CO)[C@H](O[C@@H]7O[C@H](CO)[C@@H](O)[C@H](O[C@@H]8OC[C@@H](O)[C@H](O)[C@H]8O)[C@H]7O[C@@H]7O[C@H](CO)[C@H](O)[C@H](O[C@@H]8O[C@H](CO)[C@@H](O)[C@H](O)[C@H]8O)[C@H]7O)[C@H](O)[C@H]6O)[C@H](O)C[C@]5(C)[C@H]4CC[C@]3(C)[C@H]1[C@@H]2C [digitonin] | – | – | – | adjuvant-inactive | – | highly hemolytic | – | –
QS-17 | 0.03 % (w/v) | 0.06 % (w/v) | – | potent adjuvants | ≥ 25 | – | – | –
O=Cc1cc(OCc2ccc(C(=O)O)cc2)ccc1O [isotucaresol] | – | – | – | – | – | – | – | sparingly soluble
